{
  "source": "patent US20190231748A1",
  "about": "“COMPOSITION FOR VAGINA AND ANTIMICROBIAL AGENT COMBINATION FOR USE IN PREPARING COMPOSITION FOR VAGINA” (Shenzhen Eulikan Biotechnology Co., Ltd., priority 2016, published 2019)",
  "format_in_all_cases": "cell-based",
  "key": {"[1]": {"tested_on": "Lactococcus lactis and Lactobacillus jensenii", "test": "pH of test gel after co-culture of Lactococcus lactis and Lactobacillus jensenii", "settings": "cultivated 32 hours", "source_text": "(§1) 2.1 Experimental strains: one Lactococcus lactis strain and one Lactobacillus jensenii strain, both were clinical isolates.\n(§2) The pH value was adjusted to 5.0.\n(§3) 2.4 Experimental procedure: the test gel tubes containing different concentrations of antimicrobial agents, as shown in Tables 1 to 6 were inoculated with 100 microliters of Lactobacillus lactis suspension and 100 microliters of Lactobacillus jensenii suspension at the same time. The turbidities of both suspensions were 0.5 MCF. Then the tubes were cultivated at 37° C. and under 5 percent CO2 for 32 hours. Then the changes of the pH values of gels were tested. The gels were smeared, Gram stained, and microscopically examined for the morphology and quantity of bacteria."}, "Lactococcus lactis": {"tested_on": "Lactococcus lactis", "test": "Gram-stained smear of co-culture gel, Gram-positive cocci (G+c)", "settings": "for Smear G^+c: cultivated 32 hours", "source_text": "as §1, §2, §3"}, "Lactobacillus jensenii": {"tested_on": "Lactobacillus jensenii", "test": "Gram-stained smear of co-culture gel, Gram-positive rods (G+b)", "settings": "for Smear G^+b: cultivated 32 hours", "source_text": "as §1, §2, §3"}, "[2]": {"tested_on": "nine strains of Candida albicans", "test": "Growth of Candida in enrichment broth after 24 hours, clinical strains", "settings": "agent alone, broth pH 4.5, 37° C. 24 hours", "source_text": "b. Enrichment broth: which contained 1 percent of yeast extract powder, 9 percent of sucrose, 0.025 percent of manganese sulfate (MnSO4.4H2O), 0.058 percent of magnesium sulfate (MgSO4.7H2O), and 0.9 percent of lactic acid, the pH value of the broth was adjusted to 4.5, and the enrichment broth was sterilized for later use;\n(2) Experimental groups: the requirements of aseptic operation technique were strictly followed so to prepare the sterile test tubes;\na. sodium benzoate group: each test tube contained 5 milliliters enrichment broth, and was added in 0.025 percent (weight/volume) of sodium benzoate;\nb. 2-phenylethanol group: each test tube contained 5 milliliters enrichment broth, and was added in 0.050 percent (weight/volume) of 2-phenylethanol;\nc. sodium propionate group: each test tube contained 5 milliliters enrichment broth, and was added in 0.125 percent (weight/volume) of sodium propionate;\nd. “a group of the combinations of sodium benzoate and sodium propionate”: each test tube contained 5 milliliters enrichment broth, and was added in 0.025 percent (weight/volume) of sodium benzoate and 0.125 percent (weight/volume) of sodium propionate;\ne. “a group of the combinations of sodium benzoate and 2-phenylethanol”: each test tube contained 5 milliliters enrichment broth, and was added in 0.025 percent (weight/volume) of sodium benzoate and 0.050 percent (weight/volume) of 2-phenylethanol;\nf. “a group of the combinations of sodium propionate and 2-phenylethanol”: each test tube contained 5 milliliters enrichment broth, and was added in 0.125 percent (weight/volume) of sodium propionate and 0.050 percent (weight/volume) of 2-phenylethanol;\ng. “a group of the combinations of sodium benzoate, sodium propionate and 2-phenylethanol”: each test tube contained 5 milliliters enrichment broth, and was added in 0.025 percent (weight/volume) of sodium benzoate, 0.125 percent (weight/volume) of sodium propionate and 0.050 percent (weight/volume) of 2-phenylethanol;\nh. positive control: the control tube of enrichment broth without adding in 2-phenylethanol, sodium benzoate, and sodium propionate; but inoculated the suspension of Candida albicans;\ni. negative control: the control tube of enrichment broth without adding in 2-phenylethanol, sodium benzoate, and sodium propionate; and without inoculating Candida albicans;\nThe requirements for aseptic operation technique were strictly followed to prepare the suspension of organism. The colonies of each strain of Candida albicans organism were diluted with physiological saline respectively. The turbidities of the suspensions of Candida albicans organism were adjusted to 0.5 MCF (about 10^8 CFU/ml) by a turbidimeter. 1 milliliter of the 0.5 MCF organism suspension was added into 9 milliliters of enrichment broth. Each suspension was diluted for ten times to contain 10^7 CFU/ml of organisms.\nthe requirements for aseptic technique were strictly followed to take 100 microliters of the prepared organism suspension respectively and to add the suspension into the test tubes from a to h as well as the positive control tube. No organism suspension was added into the negative control tube i.\nThe above tubes were cultured in a biochemical incubator at 37° C. for 24 hours. Then the growth of Candida in each tube was observed and recorded.\nRemark: “+” means the growth of organisms; “−” means no growth of organisms."}},
  "data": [
    {"smiles": "OCCc1ccccc1", "note": "[2-phenylethanol]", "values": [
      {"measurement": "pH value", "setting": "[1]; 0.15 % in test gel", "value": "<3.8"},
      {"measurement": "pH value", "setting": "[1]; 0.2 % in test gel", "value": "<3.8"},
      {"measurement": "pH value", "setting": "[1]; 0.25 % in test gel", "value": "<3.8"},
      {"measurement": "pH value", "setting": "[1]; 0.3 % in test gel", "value": "<3.8"},
      {"measurement": "pH value", "setting": "[1]; 0.35 % in test gel", "value": "3.8-4.1"},
      {"measurement": "pH value", "setting": "[1]; 0.4 % in test gel", "value": 4.4},
      {"measurement": "pH value", "setting": "[1]; 0.45 % in test gel", "value": 4.6},
      {"measurement": "pH value", "setting": "[1]; 0.5 % in test gel", "value": 4.8},
      {"measurement": "Smear G^+c", "setting": "Lactococcus lactis; 0.15 % in test gel", "value": "G^+c+++"},
      {"measurement": "Smear G^+c", "setting": "Lactococcus lactis; 0.2 % in test gel", "value": "G^+c+++"},
      {"measurement": "Smear G^+c", "setting": "Lactococcus lactis; 0.25 % in test gel", "value": "G^+c+++"},
      {"measurement": "Smear G^+c", "setting": "Lactococcus lactis; 0.3 % in test gel", "value": "G^+c+++"},
      {"measurement": "Smear G^+c", "setting": "Lactococcus lactis; 0.35 % in test gel", "value": "G^+c+~+"},
      {"measurement": "inhibition effect on the growth of Lactococcus lactis", "setting": "Lactococcus lactis; 0.35 to 0.45 percent", "value": "stronger inhibition effect"},
      {"measurement": "Smear G^+c", "setting": "Lactococcus lactis; 0.4 % in test gel", "value": "G^+c+"},
      {"measurement": "Smear G^+b", "setting": "Lactobacillus jensenii; 0.15 % in test gel", "value": "G^+b+"},
      {"measurement": "Smear G^+b", "setting": "Lactobacillus jensenii; 0.2 % in test gel", "value": "G^+b+"},
      {"measurement": "Smear G^+b", "setting": "Lactobacillus jensenii; 0.25 % in test gel", "value": "G^+b+"},
      {"measurement": "Smear G^+b", "setting": "Lactobacillus jensenii; 0.3 % in test gel", "value": "G^+b+"},
      {"measurement": "Smear G^+b", "setting": "Lactobacillus jensenii; 0.35 % in test gel", "value": "G^+b+++"},
      {"measurement": "inhibition effect on the growth of Lactobacillus", "setting": "Lactobacillus jensenii; 0.35 to 0.45 percent", "value": "weaker inhibition effect"},
      {"measurement": "Smear G^+b", "setting": "Lactobacillus jensenii; 0.4 % in test gel", "value": "G^+b++"},
      {"measurement": "Smear G^+b", "setting": "Lactobacillus jensenii; 0.45 % in test gel", "value": "G^+b++"},
      {"measurement": "Smear G^+b", "setting": "Lactobacillus jensenii; 0.5 % in test gel", "value": "G^+b+"},
      {"measurement": "number of the nine Candida albicans strains that grew", "setting": "[2]; 0.050 percent (weight/volume)", "value": "seven"}
    ]},
    {"smiles": "CCC(=O)[O-].[Na+]", "note": "[sodium propionate]", "values": [
      {"measurement": "pH value", "setting": "[1]; 0.1 % in test gel", "value": 3.8},
      {"measurement": "pH value", "setting": "[1]; 0.2 % in test gel", "value": 3.8},
      {"measurement": "pH value", "setting": "[1]; 0.3 % in test gel", "value": 3.8},
      {"measurement": "pH value", "setting": "[1]; 0.4 % in test gel", "value": 4.4},
      {"measurement": "pH value", "setting": "[1]; 0.5 % in test gel", "value": "4.4-4.6"},
      {"measurement": "pH value", "setting": "[1]; 0.6 % in test gel", "value": 4.6},
      {"measurement": "pH value", "setting": "[1]; 0.7 % in test gel", "value": 4.8},
      {"measurement": "Smear G^+c", "setting": "Lactococcus lactis; 0.1 % in test gel", "value": "G^+c+++"},
      {"measurement": "Smear G^+c", "setting": "Lactococcus lactis; 0.2 % in test gel", "value": "G^+c+++"},
      {"measurement": "Smear G^+c", "setting": "Lactococcus lactis; 0.3 % in test gel", "value": "G^+c+++"},
      {"measurement": "Smear G^+c", "setting": "Lactococcus lactis; 0.4 % in test gel", "value": "G^+c+"},
      {"measurement": "inhibition effect on the growth of Lactococcus lactis", "setting": "Lactococcus lactis; 0.4 to 0.6 percent", "value": "stronger inhibition effect"},
      {"measurement": "Smear G^+c", "setting": "Lactococcus lactis; 0.5 % in test gel", "value": "G^+c+"},
      {"measurement": "Smear G^+b", "setting": "Lactobacillus jensenii; 0.1 % in test gel", "value": "G^+b+"},
      {"measurement": "Smear G^+b", "setting": "Lactobacillus jensenii; 0.2 % in test gel", "value": "G^+b+"},
      {"measurement": "Smear G^+b", "setting": "Lactobacillus jensenii; 0.3 % in test gel", "value": "G^+b+"},
      {"measurement": "Smear G^+b", "setting": "Lactobacillus jensenii; 0.4 % in test gel", "value": "G^+b++"},
      {"measurement": "inhibition effect on the growth of Lactobacillus", "setting": "Lactobacillus jensenii; 0.4 to 0.6 percent", "value": "weaker inhibition effect"},
      {"measurement": "Smear G^+b", "setting": "Lactobacillus jensenii; 0.5 % in test gel", "value": "G^+b++"},
      {"measurement": "Smear G^+b", "setting": "Lactobacillus jensenii; 0.6 % in test gel", "value": "G^+b++"},
      {"measurement": "Smear G^+b", "setting": "Lactobacillus jensenii; 0.7 % in test gel", "value": "G^+b+"},
      {"measurement": "number of the nine Candida albicans strains that grew", "setting": "[2]; 0.125 percent (weight/volume)", "value": "six"}
    ]}
  ]
}
